Row | Structure (SMILES) | melting point
1 | Cl.N[C@@]1(C(=O)OCc2cc(Cl)ccc2Cl)CC[C@H]2[C@H](C(=O)O)[C@H]21 [Example 33, (1S,2S,5R,6S)-2-Amino-bicyclo[3.1.0]hexane-2,6-dicarboxylic acid 2-(2′,5′-dichloro)benzyl ester hydrochloride] | 173 to 175 °C
2 | Cl.N[C@@]1(C(=O)OCc2ccc(Cl)cc2Cl)CC[C@H]2[C@H](C(=O)O)[C@H]21 [Example 29, (1S,2S,5R,6S)-2-Amino-bicyclo[3.1.0]hexane-2,6-dicarboxylic acid 2-(2′,4′-dichloro)benzyl ester hydrochloride] | 135 to 137 °C
3 | Cl.N[C@@]1(C(=O)OCc2ccccc2C(F)(F)F)CC[C@H]2[C@H](C(=O)O)[C@H]21 | > 175 °C (dec.)
4 | N[C@@]1(C(=O)OCc2cccc(F)c2)CC[C@H]2[C@H](C(=O)O)[C@H]21 [Example 54, (1S, 2S, SR,6S)-2-Amino-bicyclo[3.1.0]hexane-2,6-dicarboxylic acid 2-(3′-fluoro)benzyl ester] | 225 °C (dec.)
5 | Cl.N[C@@]1(C(=O)OCc2ccccc2Br)CC[C@H]2[C@H](C(=O)O)[C@H]21 [Example 34, (1S,2S,5R,6S)-2-Amino-bicyclo[3.1.0]hexane-2,6-dicarboxylic acid 2-(2′-bromo)benzyl ester hydrochloride] | 190 to 191 °C
6 | Cc1ccc(C)c(COC(=O)[C@]2(N)CC[C@H]3[C@H](C(=O)O)[C@H]32)c1.Cl [Example 41, (1S,2S,5R,6S)-2-Amino-bicyclo[3.1.0]hexane-2,6-dicarboxylic acid 2-(2′,5′-dimethyl)benzyl ester hydrochloride] | 70 °C (dec.)
7 | Cl.N[C@@]1(C(=O)OCc2ccccc2F)CC[C@H]2[C@H](C(=O)O)[C@H]21 [Example 31, (1S,2S,5R,6S)-2-Amino-bicyclo[3.1.0]hexane-2,6-dicarboxylic acid 2-(2′-fluoro)benzyl ester hydrochloride] | > 220 °C (dec.)
8 | COc1ccccc1COC(=O)[C@]1(N)CC[C@H]2[C@H](C(=O)O)[C@H]21 [Example 48, (1S,2S, SR, 6S)-2-Amino-bicyclo[3.1.0]hexane-2,6-dicarboxylic acid 2-(2′-methoxy)benzyl ester] | 195 °C (dec.)
9 | Cl.N[C@@]1(C(=O)OCc2cc(F)cc(F)c2)CC[C@H]2[C@H](C(=O)O)[C@H]21 [Example 35, (1S,2S,5R,6S)-2-Amino-bicyclo[3.1.0]hexane-2,6-dicarboxylic acid 2-(31,5′-difluoro)benzyl ester hydrochloride] | 98 to 99 °C

Source: US20050009912A1, “Prodrugs of excitatory amino acids” (priority 2001, published 2005)
